PubChem BioAssay (NCI)
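Abbreviation: GI50, concentration required for 50% inhibition of growth. TGI: total growth inhibition.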

What was measured:
Assay in all cases: NCI-60 cell line screen, 384-well format
[1] = test system: 786-0 renal
[2] = test system: OVCAR-3 ovarian
[3] = test system: MDA-MB-468 breast
[4] = test system: CAKI-1 renal
[5] = test system: HCT-15 colon
[6] = test system: K-562 leukemia
[7] = test system: SF-295 CNS
[8] = test system: SF-268 CNS
[9] = test system: SK-MEL-2 melanoma
[10] = test system: IGROV1 ovarian
[11] = test system: SR leukemia
[12] = test system: A549 NSCLC
[13] = test system: UACC-62 melanoma
[14] = test system: MCF7 breast
[15] = test system: NCI-H460 NSCLC
[16] = test system: RPMI-8226 leukemia
[17] = test system: HT29 colon
[18] = test system: SW-620 colon
[19] = test system: RXF 393 renal
[20] = test system: SN12C renal
[21] = test system: EKVX NSCLC
[22] = test system: SNB-75 CNS
[23] = test system: T-47D breast
[24] = test system: HOP-62 NSCLC
[25] = test system: SK-OV-3 ovarian
[26] = test system: NCI/ADR-RES ovarian
[27] = test system: NCI-H322M lung
[28] = test system: MOLT-4 leukemia
[29] = test system: HCT-116 colon
[30] = test system: SK-MEL-5 melanoma
[31] = test system: NCI-H226 lung
[32] = test system: UO-31 renal
[33] = test system: UACC-257 melanoma
[34] = test system: OVCAR-8 ovarian
[35] = test system: HL-60(TB) leukemia
[36] = test system: COLO 205 colon
[37] = test system: ACHN renal
[38] = test system: MALME-3M melanoma
[39] = test system: HCC-2998 colon
[40] = test system: A498 renal
[41] = test system: U251 glioblastoma
[42] = test system: DU-145 prostate
[43] = test system: HOP-92 NSCLC
[44] = test system: MDA-MB-435 melanoma
[45] = test system: TK-10 renal
[46] = test system: OVCAR-4 ovarian
[47] = test system: SK-MEL-28 melanoma
[48] = test system: OVCAR-5 ovarian
[49] = test system: M14 melanoma
[50] = test system: BT-549 breast
[51] = test system: LOX IMVI melanoma
[52] = test system: SNB-19 CNS
[53] = test system: CCRF-CEM leukemia
[54] = test system: MDA-MB-231 breast
[55] = test system: PC-3 prostate
[56] = test system: SF-539 CNS
[57] = test system: NCI-H522 lung
[58] = test system: NCI-H23 lung
[59] = test system: KM12 colon

C=CC(=O)Nc1cc(N2CCN(CC)CC2)ccc1Nc1cc(N(C)C(=O)Nc2c(Cl)c(OC)cc(OC)c2Cl)ncn1
GI50 [1]: 1.71 µM
TGI [1]: 3.14 µM
GI50 [2]: 1.4 µM
TGI [2]: 2.85 µM
GI50 [3]: 0.785 µM
TGI [3]: 2.01 µM
GI50 [4]: 2.64 µM
TGI [4]: 7.01 µM
GI50 [5]: 2.83 µM
TGI [5]: 6.99 µM
GI50 [6]: 1.85 µM
TGI [6]: 3.4 µM
GI50 [7]: 15.8 µM
TGI [7]: 29.4 µM
GI50 [8]: 1.88 µM
TGI [8]: 3.96 µM
GI50 [9]: 1.21 µM
TGI [9]: 2.46 µM
GI50 [10]: 1.86 µM
TGI [10]: 3.66 µM
GI50 [11]: 0.922 µM
TGI [11]: 2.23 µM
GI50 [12]: 5.63 µM
TGI [12]: 13.1 µM
GI50 [13]: 1.56 µM
TGI [13]: 3.03 µM
GI50 [14]: 1.75 µM
TGI [14]: 6.28 µM
GI50 [15]: 1.73 µM
TGI [15]: 3.18 µM
GI50 [16]: 0.605 µM
TGI [16]: 1.52 µM
GI50 [17]: 1.97 µM
TGI [17]: 3.96 µM
GI50 [18]: 1.77 µM
TGI [18]: 3.18 µM
GI50 [19]: 0.68 µM
TGI [19]: 2.19 µM
GI50 [20]: 2.01 µM
TGI [20]: 3.74 µM
GI50 [21]: 2.34 µM
TGI [21]: 5.57 µM
GI50 [22]: 1.98 µM
TGI [22]: 4.31 µM
GI50 [23]: 1.31 µM
TGI [23]: 2.99 µM
GI50 [24]: 2.45 µM
TGI [24]: 6.36 µM
GI50 [25]: 2.51 µM
TGI [25]: 6.71 µM
GI50 [26]: > 44.6 µM
TGI [26]: > 78.5 µM
GI50 [27]: 10.5 µM
TGI [27]: 31 µM
GI50 [28]: 0.91 µM
TGI [28]: 2.21 µM
GI50 [29]: 1.88 µM
TGI [29]: 3.46 µM
GI50 [30]: 1.8 µM
TGI [30]: 3.43 µM
GI50 [31]: 1.84 µM
TGI [31]: 4.39 µM
GI50 [32]: 2.03 µM
TGI [32]: 4.08 µM
GI50 [33]: 1.42 µM
TGI [33]: 2.78 µM
GI50 [34]: 1.76 µM
TGI [34]: 3.31 µM
GI50 [35]: 1.94 µM
TGI [35]: 3.37 µM
GI50 [36]: 2.31 µM
TGI [36]: 4.24 µM
GI50 [37]: 4.55 µM
TGI [37]: 10.7 µM
GI50 [38]: 1.96 µM
TGI [38]: 3.47 µM
GI50 [39]: 1.7 µM
TGI [39]: 3.08 µM
GI50 [40]: 1.72 µM
TGI [40]: 3.14 µM
GI50 [41]: 1.89 µM
TGI [41]: 3.44 µM
GI50 [42]: 1.91 µM
TGI [42]: 3.76 µM
GI50 [43]: 1.02 µM
TGI [43]: 2.77 µM
GI50 [44]: 2.56 µM
TGI [44]: 5.84 µM
GI50 [45]: 2.18 µM
TGI [45]: 5.02 µM
GI50 [46]: 2.03 µM
TGI [46]: 6.62 µM
GI50 [47]: 2.05 µM
TGI [47]: 4.39 µM
GI50 [48]: 7.01 µM
TGI [48]: 19 µM
GI50 [49]: 2.38 µM
TGI [49]: 5.12 µM
GI50 [50]: 1.4 µM
TGI [50]: 2.73 µM
GI50 [51]: 1.87 µM
TGI [51]: 3.28 µM
GI50 [52]: 2.89 µM
TGI [52]: 7.71 µM
GI50 [53]: 1.56 µM
TGI [53]: 2.92 µM
GI50 [54]: 1.67 µM
TGI [54]: 3.31 µM
GI50 [55]: 1.81 µM
TGI [55]: 3.27 µM
GI50 [56]: 1.58 µM
TGI [56]: 2.95 µM
GI50 [57]: 1.63 µM
TGI [57]: 3.02 µM
GI50 [58]: 3.68 µM
TGI [58]: 10 µM
GI50 [59]: 1.76 µM
TGI [59]: 3.23 µM
